According to patent US20250122181A1, “BENZIMIDAZOLES AS MODULATORS OF IL-17” (Janssen Pharmaceutica NV, priority 2021, published 2025):

How the values were obtained:
[1] = target: T1, IL-17A(FLAG-Tagged): IL-17RA(His-Tagged) (Homo sapiens, UniProt Q16552, K93Q); test: IL-17A(FLAG-Tagged): IL-17RA(His-Tagged) Binding Disruption Eu-HTRF Assay, Protocol 1; conditions: Protocol 1, FLAG tagged IL-17A 2.5 nM; simple average if tested more than once
Procedure, shortened: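 IC50 came from a one-site competition fit of the acceptor/donor (665/620 nm) HTRF ratio. His-tagged IL-17RA, Eu-anti-FLAG and D2-anti-His were added after a 1 h rt compound preincubation with FLAG-tagged IL-17A dimer in PBS/0.01% Triton X-100, followed by 2 h at rt before reading.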

[2] = target: T1, IL-17A(FLAG-Tagged): IL-17RA(His-Tagged); test: IL-17A(FLAG-Tagged): IL-17RA(His-Tagged) Binding Disruption Eu-HTRF Assay, Protocol 2; conditions: Protocol 2, FLAG tagged IL-17A 1 nM; simple average if tested more than once
From the text: An antibody directed against the FLAG tag of IL-17A (SEQ ID NO: 1) is labeled with the HTRF donor chromophore (Europium-cryptate). IL-17A is present as a dimer that is “locked into” this quaternary structure due to the formation of loop-spanning […] disulfide bridges. The construct of IL-17RA used in the assay excludes the […] portion of the receptor and is fused to a C-terminal 10×His tag (SEQ ID NO:2). An antibody directed against the His tag of the IL-17RA chimera is labeled with the HTRF acceptor chromophore (“D2”). The fluorescence-resonance energy transfer (FRET) depends on the vicinity of the donor chromophore to the acceptor, and interruption of the binding between the IL-17A and IL-17RA causes the reduction/loss of FRET. Therefore, this assay allows to evaluate the compound effect on the binding IL-17A and IL-17RA by monitoring the fluorescence intensity of donor vs acceptor. The assay was run using either Protocol 1 or Protocol 2 as described below.
Protocol 2. 40 nl of 2-fold serial diluted compound solution for total 22 dilution points is added into each well of a 1536-well, white, low-volume, non-binding plate (Greiner #782904), then 2 μl of FLAG tagged IL-17A at 2× final concentration (1 nM) in solution of PBS+0.01% Triton-X100 is added to each well. The assay plate is briefly centrifuged then incubated for 1 h at rt. A mixed solution is prepared containing 2×5 nM 10HIS×IL-17RA, 2×2.5 nM Eu-anti-FLAG (CISBIO), 2×5 nM D2-anti-HIS (CISBIO) in PBS+0.01% Triton-X100+200 mM Potassium Fluoride (Sigma 60238) and 2 μl of mix is added to each well of the assay plate. The plate is briefly centrifuged then incubated for 2 h at rt. The HTRF intensities at the wavelength of donor (615 nm) and acceptor (665 nm) are measured using BMG Pherastar. The ratio between intensities at two wavelengths is calculated and plotted against the compound concentration and the data is fitted to a one-site competition model to yield IC50 of the compound.

[3] = system: IL-17A-induced G-CSF production in human normal keratinocyte (NHK); test: NHK Assay: IL-17A-induced G-CSF production in human normal keratinocyte; type: cell-based; conditions: 24 h, IL-17A 5 ng/mL, simple average if tested more than once
Procedure, shortened: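 Compound titrations are first mixed with recombinant human IL-17A for 1 h at room temperature. The mixture goes onto adult normal human keratinocytes (final IL-17A 5 ng/mL, 5% FBS, 0.2% DMSO) for 24 h at 37 °C. Secreted G-CSF is then measured by HTRF and IC50 fitted.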

T1 sequence (Q16552 with tags, fused parts or gaps K93Q): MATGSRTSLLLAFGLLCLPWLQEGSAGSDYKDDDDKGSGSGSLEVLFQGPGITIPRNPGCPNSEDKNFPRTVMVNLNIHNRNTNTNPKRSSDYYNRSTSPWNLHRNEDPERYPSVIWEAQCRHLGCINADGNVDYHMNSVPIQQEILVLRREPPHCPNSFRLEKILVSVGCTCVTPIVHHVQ

| SMILES | IC50 [1] | IC50 [2] | IC50 ([3]; Homo sapiens, Keratinocyte) | IC50 [3] |
| --- | --- | --- | --- | --- |
| COC[C@H](c1ccc2nc(C(NC(=O)c3nonc3C3CC3)[C@@H](C)O[C@H](C)C(F)(F)F)[nH]c2c1F)N1C[C@@H](C(F)(F)F)NC1=O (single isomer, unassigned) [Example 95, 4-Cyclopropyl-N-((1R*,2R)-1-(7-fluoro-6-((S)-2-methoxy-1-((S)-2-oxo-4-(trifluoromethyl)imidazolidin-1-yl)ethyl)-1H-benzo[d]imidazol-2-yl)-2-(((R)-1,1,1-trifluoropropan-2-yl)oxy)propyl)-1,2,5-oxadiazole-3-carboxamide] | – | < 50 nM | – | < 50 nM |
| COC[C@H](c1ccc2nc(C(NC(=O)c3nonc3C)[C@@H](C)O[C@H](C)C(F)(F)F)[nH]c2c1F)N1C[C@@H](C(F)(F)F)NC1=O (single isomer, unassigned) [Example 96, N-((1S*,2R)-1-(7-Fluoro-6-((S)-2-methoxy-1-((S)-2-oxo-4-(trifluoromethyl)imidazolidin-1-yl)ethyl)-1H-benzo[d]imidazol-2-yl)-2-(((R)-1,1,1-trifluoropropan-2-yl)oxy)propyl)-4-methyl-1,2,5-oxadiazole-3-carboxamide] | – | 50 to 100 nM | < 50 nM | – |
| COC[C@H](c1ccc2nc(C(NC(=O)c3nonc3C)[C@@H](C)O[C@H](C)C(F)(F)F)[nH]c2c1F)N1C[C@@H](C(F)(F)F)NC1=O (single isomer, unassigned) [Example 97, N-((1R*,2R)-1-(7-Fluoro-6-((S)-2-methoxy-1-((S)-2-oxo-4-(trifluoromethyl)imidazolidin-1-yl)ethyl)-1H-benzo[d]imidazol-2-yl)-2-(((R)-1,1,1-trifluoropropan-2-yl)oxy)propyl)-4-methyl-1,2,5-oxadiazole-3-carboxamide] | – | < 50 nM | – | < 50 nM |
| C[C@@H](OC1CC1)[C@H](NC(=O)c1nonc1C1CC1)c1nc2cc([C@@H](COC3CC3)N3C[C@@H](C(F)(F)F)NC3=O)ccc2[nH]1 [Example 69, N-((1R,2R)-2-Cyclopropoxy-1-(5-((S)-2-cyclopropoxy-1-((S)-2-oxo-4-(trifluoromethyl)imidazolidin-1-yl)ethyl)-1H-benzo[d]imidazol-2-yl)propyl)-4-cyclopropyl-1,2,5-oxadiazole-3-carboxamide] | – | < 50 nM | < 50 nM | – |
| Cc1nonc1C(=O)N[C@H](c1nc2cc([C@@H](COC3CC3)N3C[C@@H](C(F)(F)F)NC3=O)ccc2[nH]1)[C@@H](C)OC1CC1 [Example 70, N-((1R,2R)-2-Cyclopropoxy-1-(5-((S)-2-cyclopropoxy-1-((S)-2-oxo-4-(trifluoromethyl)imidazolidin-1-yl)ethyl)-1H-benzo[d]imidazol-2-yl)propyl)-4-methyl-1,2,5-oxadiazole-3-carboxamide] | – | < 50 nM | < 50 nM | – |
| C[C@@H](OC1CC1)[C@H](NC(=O)c1nonc1C1CC1)c1nc2cc([C@@H](COC3CC3)N3CC(F)(F)CNC3=O)ccc2[nH]1 [Example 71, N-((1R,2R)-2-Cyclopropoxy-1-(5-((S)-2-cyclopropoxy-1-(5,5-difluoro-2-oxotetrahydropyrimidin-1(2H)-yl)ethyl)-1H-benzo[d]imidazol-2-yl)propyl)-4-cyclopropyl-1,2,5-oxadiazole-3-carboxamide] | – | < 50 nM | < 50 nM | – |
| CC(C)n1ncc(F)c1C(=O)N[C@H](c1nc2cc([C@@H](COC3CC3)N3CC(F)(F)CNC3=O)ccc2[nH]1)[C@@H](C)OC1CC1 [Example 72, N-((1R,2R)-2-Cyclopropoxy-1-(5-((S)-2-cyclopropoxy-1-(5,5-difluoro-2-oxotetrahydropyrimidin-1(2H)-yl)ethyl)-1H-benzo[d]imidazol-2-yl)propyl)-4-fluoro-1-isopropyl-1H-pyrazole-5-carboxamide] | – | < 50 nM | 50 to 100 nM | – |
| Cc1nonc1C(=O)N[C@H](c1nc2cc([C@@H](COC3CC3)N3CC(F)(F)CNC3=O)ccc2[nH]1)[C@@H](C)OC1CC1 [Example 73, N-((1R,2R)-2-Cyclopropoxy-1-(5-((S)-2-cyclopropoxy-1-(5,5-difluoro-2-oxotetrahydropyrimidin-1(2H)-yl)ethyl)-1H-benzo[d]imidazol-2-yl)propyl)-4-methyl-1,2,5-oxadiazole-3-carboxamide] | – | < 50 nM | < 50 nM | – |
| CC(C)n1nccc1C(=O)N[C@H](c1nc2c(F)cc([C@@H](C3CC3)N3C[C@@H](C(F)(F)F)NC3=O)cc2[nH]1)[C@@H](C)O[C@H](C)C(F)(F)F [Example 85, N-[(1R,2R)-1-[6-[(R)-Cyclopropyl-[(4S)-2-oxo-4-(trifluoromethyl)imidazolidin-1-yl]methyl]-4-fluoro-1H-benzimidazol-2-yl]-2-[(1R)-2,2,2-trifluoro-1-methyl-ethoxy]propyl]-2-isopropyl-pyrazole-3-carboxamide] | 50 to 100 nM | – | < 50 nM | – |
| Cc1nonc1C(=O)N[C@@H](COC(C)(C)C(F)(F)F)c1nc2cc([C@@H](C3CC3)N3CC4(CC4)NC3=O)ccc2[nH]1 [Example 87, N—((R)-1-(5-((R)-Cyclopropyl(5-oxo-4,6-diazaspiro[2.4]heptan-6-yl)methyl)-1H-benzo[d]imidazol-2-yl)-2-((1,1,1-trifluoro-2-methylpropan-2-yl)oxy)ethyl)-4-methyl-1,2,5-oxadiazole-3-carboxamide] | < 50 nM | – | < 50 nM | – |

Second part, led by results:

| IC50 [1] | IC50 [2] | SMILES | IC50 ([3]; Homo sapiens, Keratinocyte) | IC50 [3] |
| --- | --- | --- | --- | --- |
| < 50 nM | < 50 nM | [2H]C1([2H])[C@H](C(F)(F)F)NC(=O)N1[C@H](COC)c1ccc2[nH]c([C@H](COC(C)(C)C(F)(F)F)NC(=O)c3nonc3C)nc2c1 (relative stereo) [Example 54, N—((R*)-1-(5-((S)-2-methoxy-1-((R*)-2-oxo-4-(trifluoromethyl)imidazolidin-1-yl-5,5-d2)ethyl)-1H-benzo[d]imidazol-2-yl)-2-((1,1,1-trifluoro-2-methylpropan-2-yl)oxy)ethyl)-4-methyl-1,2,5-oxadiazole-3-carboxamide] | < 50 nM | – |
| < 50 nM | < 50 nM | C[C@H](c1ccc2[nH]c(C(COC(C)(C)C(F)(F)F)NC(=O)c3nonc3C3CC3)nc2c1)N1C[C@@H](C(F)(F)F)NC1=O (single isomer, unassigned) [Example 7, 4-Cyclopropyl-N—((R*)-1-(5-((R)-1-((S)-2-oxo-4-(trifluoromethyl)imidazolidin-1-yl)ethyl)-1H-benzo[d]imidazol-2-yl)-2-((1,1,1-trifluoro-2-methylpropan-2-yl)oxy)ethyl)-1,2,5-oxadiazole-3-carboxamide] | < 50 nM | – |
| < 50 nM | < 50 nM | CC(C)(OC[C@H](NC(=O)c1nonc1C1CC1)c1nc2cc(CN3C[C@@H](C(F)(F)F)NC3=O)ccc2[nH]1)C(F)(F)F (single isomer, unassigned) [Example 17] | < 50 nM | – |
| – | < 50 nM | COC[C@H](c1ccc2[nH]c(C(NC(=O)c3nonc3C)[C@@H](C)OC(C)(C)C(F)(F)F)nc2c1)N1C[C@@H](C(F)(F)F)NC1=O (single isomer, unassigned) [Example 74, N-[(1R*,2R)-1-[5-[(1S)-2-Methoxy-1-[(4S)-2-oxo-4-(trifluoromethyl)imidazolidin-1-yl]ethyl]-1H-benzimidazol-2-yl]-2-(2,2,2-trifluoro-1,1-dimethyl-ethoxy)propyl]-4-methyl-1,2,5-oxadiazole-3-carboxamide] | < 50 nM | – |
| – | < 50 nM | COC[C@H](c1ccc2nc(C(NC(=O)c3nonc3C3CC3)[C@@H](C)O[C@H](C)C(F)(F)F)[nH]c2c1F)N1C[C@@H](C(F)(F)F)NC1=O (single isomer, unassigned) [Example 94, 4-Cyclopropyl-N-((1S*,2R)-1-(7-fluoro-6-((S)-2-methoxy-1-((S)-2-oxo-4-(trifluoromethyl)imidazolidin-1-yl)ethyl)-1H-benzo[d]imidazol-2-yl)-2-(((R)-1,1,1-trifluoropropan-2-yl)oxy)propyl)-1,2,5-oxadiazole-3-carboxamide] | < 50 nM | – |
